Assay results taken from patent US20220296599A1, “Pharmaceutical composition comprising histone deacetylase inhibitor and methotrexate” (Chong Kun Dang Pharmaceutical Corp., priority 2018, published 2022).

How the values were obtained:
Assay type in all cases: in vivo, Lewis rats
[1] = system: adjuvant-induced arthritis (AIA) model; assay: Clinical score analysis in adjuvant-induced arthritis (AIA) model; set-up: Clinical score 9th day / Clinical score 13th day / Clinical score 16th day / Clinical score 11th day / Clinical score 15th day / Clinical score 18th day: scale not given here; conditions: for Clinical score 9th day / Clinical score 13th day / Clinical score 16th day: Mean ± SD; for Clinical score 11th day / Clinical score 15th day / Clinical score 18th day: Mean ± SEM
Procedure: (§1) Lewis rats (female, five-weeks old) were purchased from Central Lab Animal, Inc. and kept in a controlled environment with a temperature at 22±2° C., a humidity at 44-56% and a light/dark cycle of 12 hours, while being allowed to have a free access to standard diet and water for one week before an examination. Complete Freund's Adjuvant (Chondrex) containing 10 mg/mL of heat killed mycobacteria toxin was fully mixed together, after which […] thereof was taken and subcutaneously injected into each upper tail of the rats to induce arthritis therefrom.
(§2) To administer a drug of compound 374 (SM374) and evaluate an effect thereof, the rats were divided into 11 groups (9, 10 or 11 animals per group) one day before or nine days after inducing arthritis, after which each group was classified according to administered substances (vehicle, compound 374 (SM374) or methotrexate (MTX)) and administration routes (oral administration (P.O.) or intraperitoneal administration (I.P.)) as shown in a following table 13.
(§3) Also, in order to administer a drug of compounds 374, 413, 484, 530 and 652 (SM374, SM413, SM484, SM530 and SM652) and evaluate an effect thereof, the rats were divided into 13 groups (9 or 10 animals per group) eight days after inducing arthritis, and each group was classified according to administered substances (vehicle, SM374, SM413, SM484, SM530, SM652 and MTX) and administration routes (oral or intraperitoneal administration) as shown in a following table 14.
To identify the efficacy of the inventive composition on preventing or treating arthritis in an AIA model, an analysis was made on the clinical scores of rats dosed with a compound 374 (SM 374, once per day) or MTX (once per week or twice per week) from 9th day to 16th day after inducing arthritis.
Particularly, a degree of swelling, erythema, etc., in each joint of the rats were observed, after which clinical scores were calculated according to a scoring system described in a following table 15, such that the clinical scores on four joints were added up to obtain total scores for each rat (Vishwakarma et al., 2013).
To identify the efficacy of the inventive composition on preventing or treating arthritis in an AIA model, an analysis was made on the clinical scores of rats dosed with compounds 374, 413, 484, 530 and 652 (SM374, SM413, SM484, SM530 and SM652, once per day) or MIX (once per week) from 8th day to 18th day after inducing arthritis.

anti-CCP IgG = assay: Analysis of anti-CCP IgG in plasma in AIA model (QUANTA Lite CCP3 IgG ELISA); conditions: Mean ± SD
Procedure: as §1, §2
An effect of compound 374 (SM374) and MTX on preventing or treating arthritis according to administration thereof in combination was evaluated based on analysis of anti-CCP IgG, known as a diagnosis marker for rheumatoid arthritis.
Particularly, blood was collected from each jugular vein of rats dosed with compound 374 (SM374, once per day) and MTX (once or twice per week) from 9th day to 16th day after inducing AIA, after which plasma was isolated therefrom, such that anti-CCP IgG was measured with QUANTA Lite®CCP3 (cyclic citrullinated peptide 3) IgG ELISA kit (INOVA Diagnostics Inc., U.S., catalog no. 704535) according to a protocol offered by a manufacturer thereof, wherein the results thereof are shown in FIG. 5 and Table 20.

[2] = Analysis of body weights in AIA model; conditions: for Body weight (g) 9th day / Body weight (g) 13th day / Body weight (g) 16th day: Mean ± SD; for Body weight (g) 8th day / Body weight (g) 11th day / Body weight (g) 15th day / Body weight (g) 18th day: Table 19 study, compound 10 mg/kg once per day P.O.
Procedure: as §1, §2, §3
An analysis was made on the body weight of rats dosed with compound 374 (SM 374, once per day) or MIX (once per week or twice per week) from 9th day to 16th day after inducing AIA. […]

[3] = SM374 0.1 mg/kg once per day P.O.
[4] = SM374 0.5 mg/kg once per day P.O.
[5] = SM374 1 mg/kg once per day P.O.
[6] = SM374 10 mg/kg once per day P.O.
[7] = Table 17 study, compound 10 mg/kg once per day P.O., 18th day vs vehicle
[8] = Table 17 study, compound 10 mg/kg once per day P.O.

Compound: O=C(NO)c1ccc(CN(C(=O)N2CCOCC2)c2cccc(C(F)(F)F)c2)cc1 [SM374, N-(4-(hydroxycarbamoyl)benzyl)-N-(3-(trifluoromethyl)phenyl)morpholine-4-carboxamide]
- Rate of reduction in clinical scores (%) ([1]; SM374 0.1 mg/kg once per day P.O., 16th day vs vehicle): 0%
- Clinical score 9th day [1, 3]: 0.0 ± 0.0
- Clinical score 13th day [1, 3]: 4.3 ± 2.9
- Clinical score 16th day [1, 3]: 6.9 ± 3.0
- Rate of reduction in clinical scores (%) ([1]; SM374 0.5 mg/kg once per day P.O., 16th day vs vehicle): 2.9%
- Clinical score 9th day [1, 4]: 0.0 ± 0.0
- Clinical score 13th day [1, 4]: 2.6 ± 2.3
- Clinical score 16th day [1, 4]: 6.7 ± 4.2
- Rate of reduction in clinical scores (%) ([1]; SM374 1 mg/kg once per day P.O., 16th day vs vehicle): 14.5%
- Clinical score 9th day [1, 5]: 0.0 ± 0.0
- Clinical score 13th day [1, 5]: 2.7 ± 3.0
- Clinical score 16th day [1, 5]: 5.9 ± 4.4
- Rate of reduction in clinical scores (%) ([1]; SM374 10 mg/kg once per day P.O., 16th day vs vehicle): −2.9%
- Clinical score 9th day [1, 6]: 0.0 ± 0.0
- Clinical score 13th day [1, 6]: 2.9 ± 2.9
- Clinical score 16th day [1, 6]: 7.1 ± 3.1
- Rate of reduction in clinical scores (%) [1, 7]: 21.3%
- Clinical score 11th day [1, 8]: 0.0 ± 0.0
- Clinical score 15th day [1, 8]: 1.6 ± 0.7
- Clinical score 18th day [1, 8]: 4.8 ± 1.4
- Anti-CCP IgG (RU) (anti-CCP IgG; SM374 0.5 mg/kg once per day): 216.2 ± 30.0 RU
- Anti-CCP IgG (RU) (anti-CCP IgG; SM374 1 mg/kg once per day): 221.8 ± 28.0 RU
- Anti-CCP IgG (RU) (anti-CCP IgG; SM374 10 mg/kg once per day): 206.6 ± 32.9 RU
- Body weight (g) 9th day [2, 3]: 157.3 ± 10.1 g
- Body weight (g) 13th day [2, 3]: 151.3 ± 13.3 g
- Body weight (g) 16th day [2, 3]: 144.2 ± 10.5 g
- Body weight (g) 9th day [2, 4]: 157.3 ± 10.0 g
- Body weight (g) 13th day [2, 4]: 153.1 ± 10.8 g
- Body weight (g) 16th day [2, 4]: 148.6 ± 9.5 g
- Body weight (g) 9th day [2, 5]: 157.3 ± 10.7 g
- Body weight (g) 13th day [2, 5]: 156.9 ± 8.9 g
- Body weight (g) 16th day [2, 5]: 151.6 ± 11.5 g
- Body weight (g) 9th day [2, 6]: 157.3 ± 9.9 g
- Body weight (g) 13th day [2, 6]: 151.6 ± 12.2 g
- Body weight (g) 16th day [2, 6]: 147.6 ± 9.3 g
- Body weight (g) 8th day [2]: 151.3 ± 2.1 g
- Body weight (g) 11th day [2]: 153.9 ± 1.5 g
- Body weight (g) 15th day [2]: 159.2 ± 1.5 g
- Body weight (g) 18th day [2]: 157.6 ± 3.1 g

Compound: O=C(NO)c1ccc(CN(C(=O)N2CCCOCC2)c2cccc(F)c2)cc1 [SM652, N-(3-fluorophenyl)-N-(4-(hydroxycarbamoyl)benzyl)-1,4-oxazepane-4-carboxamide]
- Rate of reduction in clinical scores (%) [1, 7]: 19.7%
- Clinical score 11th day [1, 8]: 0.0 ± 0.0
- Clinical score 15th day [1, 8]: 1.4 ± 0.9
- Clinical score 18th day [1, 8]: 4.9 ± 1.6
- Body weight (g) 8th day [2]: 152.8 ± 2.4 g
- Body weight (g) 11th day [2]: 157.6 ± 1.9 g
- Body weight (g) 15th day [2]: 158.8 ± 1.6 g
- Body weight (g) 18th day [2]: 156.8 ± 3.9 g

Compound: O=C(NO)c1ccc(CN(C(=O)N2CCOCC2)c2cccc(F)c2)cc1 [SM530]
- Rate of reduction in clinical scores (%) [1, 7]: 31.1%
- Clinical score 11th day [1, 8]: 0.0 ± 0.0
- Clinical score 15th day [1, 8]: 1.2 ± 0.5
- Clinical score 18th day [1, 8]: 4.2 ± 1.6
- Body weight (g) 8th day [2]: 151.2 ± 2.6 g
- Body weight (g) 11th day [2]: 153.0 ± 2.1 g
- Body weight (g) 15th day [2]: 161.1 ± 2.1 g
- Body weight (g) 18th day [2]: 159.2 ± 4.5 g
